Reference: the kinase profiling compilation of Christmann-Franck et al. (2016)

Columns and labels:
Assay in all cases: radiometric filter-binding kinase assay, Kinase HotSpot
Conditions in all cases: compound 0.5 µM; ATP 10 µM
PAK4 (human) = PAK4 (human) (UniProt O96013)
CDK3 CCNE1 (human) = CDK3 CCNE1 (human) (UniProt Q00526+P24864)
CLK3 (human) = CLK3 (human) (UniProt P49761)
IKBKE (human) = IKBKE (human) (UniProt Q14164)
EPHB1 (human) = EPHB1 (human) (UniProt P54762)
IGF1R (human) = IGF1R (human) (UniProt P08069)
MLTK (human) = MLTK (human) (UniProt Q9NYL2)
PRKCI (human) = PRKCI (human) (UniProt P41743)
MAPKAPK2 (human) = MAPKAPK2 (human) (UniProt P49137)
Chain of MAPKAPK2 (human) (P49137 whole entry, looked up): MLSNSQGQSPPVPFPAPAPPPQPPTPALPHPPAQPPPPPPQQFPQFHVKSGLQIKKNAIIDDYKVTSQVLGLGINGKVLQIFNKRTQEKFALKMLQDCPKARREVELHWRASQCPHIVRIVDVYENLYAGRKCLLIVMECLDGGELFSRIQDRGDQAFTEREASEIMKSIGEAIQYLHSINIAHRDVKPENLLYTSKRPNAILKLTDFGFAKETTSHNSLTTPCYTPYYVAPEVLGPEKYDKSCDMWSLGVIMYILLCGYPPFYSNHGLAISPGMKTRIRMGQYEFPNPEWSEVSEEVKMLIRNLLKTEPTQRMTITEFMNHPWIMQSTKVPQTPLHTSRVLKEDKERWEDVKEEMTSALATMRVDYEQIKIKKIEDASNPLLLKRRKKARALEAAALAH

PRKG2 (human) = PRKG2 (human) (UniProt Q13237)
Chain of PRKG2 (human) (Q13237 whole entry, looked up): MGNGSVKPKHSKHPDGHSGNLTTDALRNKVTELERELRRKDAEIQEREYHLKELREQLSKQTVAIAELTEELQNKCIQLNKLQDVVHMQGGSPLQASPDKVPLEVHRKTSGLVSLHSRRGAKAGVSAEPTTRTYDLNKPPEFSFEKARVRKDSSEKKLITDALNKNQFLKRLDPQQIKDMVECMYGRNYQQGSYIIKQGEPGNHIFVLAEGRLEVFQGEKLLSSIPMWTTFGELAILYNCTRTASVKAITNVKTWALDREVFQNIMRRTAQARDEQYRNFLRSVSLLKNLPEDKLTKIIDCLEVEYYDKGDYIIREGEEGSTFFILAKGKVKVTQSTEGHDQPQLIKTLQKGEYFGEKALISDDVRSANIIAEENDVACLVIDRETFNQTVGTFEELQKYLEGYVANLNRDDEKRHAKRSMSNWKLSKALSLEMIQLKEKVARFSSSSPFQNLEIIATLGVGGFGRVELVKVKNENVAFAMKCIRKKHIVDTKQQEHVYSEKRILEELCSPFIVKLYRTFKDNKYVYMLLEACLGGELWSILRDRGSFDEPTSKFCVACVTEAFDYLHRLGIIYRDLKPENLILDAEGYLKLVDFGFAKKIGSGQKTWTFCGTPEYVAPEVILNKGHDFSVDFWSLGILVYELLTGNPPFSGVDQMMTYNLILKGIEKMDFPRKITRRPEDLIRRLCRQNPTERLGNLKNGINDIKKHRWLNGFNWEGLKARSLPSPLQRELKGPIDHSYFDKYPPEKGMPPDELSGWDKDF

STK17A (human) = STK17A (human) (UniProt Q9UEE5)
PRKCB2 (human) = PRKCB2 (human) (UniProt P05771)
RPS6KB1 (human) = RPS6KB1 (human) (UniProt P23443)
EPHA3 (human) = EPHA3 (human) (UniProt P29320)
DYRK1B (human) = DYRK1B (human) (UniProt Q9Y463)
PLK3 (human) = PLK3 (human) (UniProt Q9H4B4)
CSNK1E (human) = CSNK1E (human) (UniProt P49674)
TYRO3 (human) = TYRO3 (human) (UniProt Q06418)
ROCK1 (human) = ROCK1 (human) (UniProt Q13464)
STK33 (human) = STK33 (human) (UniProt Q9BYT3)
ADRBK1 (human) = ADRBK1 (human) (UniProt P25098)
CSNK2A1 (human) = CSNK2A1 (human) (UniProt P68400)
MAP4K2 (human) = MAP4K2 (human) (UniProt Q12851)
Chain of MAP4K2 (human) (Q12851 whole entry, looked up): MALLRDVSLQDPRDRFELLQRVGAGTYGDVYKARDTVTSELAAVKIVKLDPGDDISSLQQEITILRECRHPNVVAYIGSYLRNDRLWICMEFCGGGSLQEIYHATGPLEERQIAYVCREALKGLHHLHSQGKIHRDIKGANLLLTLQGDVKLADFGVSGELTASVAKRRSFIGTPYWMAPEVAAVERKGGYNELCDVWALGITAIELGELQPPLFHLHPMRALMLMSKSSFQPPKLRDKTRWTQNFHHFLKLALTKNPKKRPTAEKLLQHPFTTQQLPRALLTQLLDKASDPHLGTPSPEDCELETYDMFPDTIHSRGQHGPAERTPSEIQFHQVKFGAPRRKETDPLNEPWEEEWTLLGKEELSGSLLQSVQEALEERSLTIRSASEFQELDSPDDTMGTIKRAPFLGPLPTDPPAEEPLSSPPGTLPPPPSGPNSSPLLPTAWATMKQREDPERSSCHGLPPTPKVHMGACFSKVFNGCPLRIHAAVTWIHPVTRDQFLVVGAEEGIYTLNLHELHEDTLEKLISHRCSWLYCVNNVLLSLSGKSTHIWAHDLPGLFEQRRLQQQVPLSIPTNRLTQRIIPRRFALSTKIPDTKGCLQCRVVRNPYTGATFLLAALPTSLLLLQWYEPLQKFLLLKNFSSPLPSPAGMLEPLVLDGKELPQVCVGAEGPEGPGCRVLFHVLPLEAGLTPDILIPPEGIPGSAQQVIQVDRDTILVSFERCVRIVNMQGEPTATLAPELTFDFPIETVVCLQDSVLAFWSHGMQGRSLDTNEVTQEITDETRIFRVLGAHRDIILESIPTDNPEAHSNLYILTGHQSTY

NEK2 (human) = NEK2 (human) (UniProt P51955)
MAP3K11 (human) = MAP3K11 (human) (UniProt Q16584)
MYLK2 (human) = MYLK2 (human) (UniProt Q9H1R3)
PRKCA (human) = PRKCA (human) (UniProt P17252)
EPHA7 (human) = EPHA7 (human) (UniProt Q15375)
JAK3 JH1 JH2 (human) = JAK3 JH1 JH2 (human) (UniProt P52333)
TBK1 (human) = TBK1 (human) (UniProt Q9UHD2)
MUSK (human) = MUSK (human) (UniProt O15146)
MAP3K5 (human) = MAP3K5 (human) (UniProt Q99683)
FYN (human) = FYN (human) (UniProt P06241)
CSNK1A1 (human) = CSNK1A1 (human) (UniProt P48729)
ERBB2 (human) = ERBB2 (human) (UniProt P04626)
FGR (human) = FGR (human) (UniProt P09769)
PBK (human) = PBK (human) (UniProt Q96KB5)
CAMKK1 (human) = CAMKK1 (human) (UniProt Q8N5S9)
IKBKB (human) = IKBKB (human) (UniProt O14920)
Chain of IKBKB (human) (O14920 whole entry, looked up): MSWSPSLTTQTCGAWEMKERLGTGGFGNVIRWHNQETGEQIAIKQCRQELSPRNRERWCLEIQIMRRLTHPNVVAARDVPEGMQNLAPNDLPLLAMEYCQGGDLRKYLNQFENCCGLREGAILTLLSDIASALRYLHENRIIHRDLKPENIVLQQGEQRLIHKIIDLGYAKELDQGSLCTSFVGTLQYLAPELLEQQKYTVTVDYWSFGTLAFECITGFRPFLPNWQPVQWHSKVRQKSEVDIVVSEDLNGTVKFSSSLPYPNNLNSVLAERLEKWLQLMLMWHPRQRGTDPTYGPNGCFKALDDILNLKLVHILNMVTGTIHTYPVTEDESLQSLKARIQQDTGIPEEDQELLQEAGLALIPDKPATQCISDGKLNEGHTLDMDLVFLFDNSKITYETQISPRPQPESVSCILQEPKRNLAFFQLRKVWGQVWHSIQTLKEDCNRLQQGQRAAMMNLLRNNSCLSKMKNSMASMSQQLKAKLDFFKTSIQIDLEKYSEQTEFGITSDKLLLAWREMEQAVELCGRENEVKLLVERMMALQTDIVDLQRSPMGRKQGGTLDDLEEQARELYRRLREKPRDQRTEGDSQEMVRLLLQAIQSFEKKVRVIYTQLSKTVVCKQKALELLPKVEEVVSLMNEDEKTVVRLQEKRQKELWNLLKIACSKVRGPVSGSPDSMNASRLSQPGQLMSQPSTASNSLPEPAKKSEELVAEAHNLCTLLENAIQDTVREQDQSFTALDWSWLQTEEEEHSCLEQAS

MST1R (human) = MST1R (human) (UniProt Q04912)
PKN2 (human) = PKN2 (human) (UniProt Q16513)
RIPK2 (human) = RIPK2 (human) (UniProt O43353)

Chain of CDK3 CCNE1 (human) (P24864 whole entry, looked up): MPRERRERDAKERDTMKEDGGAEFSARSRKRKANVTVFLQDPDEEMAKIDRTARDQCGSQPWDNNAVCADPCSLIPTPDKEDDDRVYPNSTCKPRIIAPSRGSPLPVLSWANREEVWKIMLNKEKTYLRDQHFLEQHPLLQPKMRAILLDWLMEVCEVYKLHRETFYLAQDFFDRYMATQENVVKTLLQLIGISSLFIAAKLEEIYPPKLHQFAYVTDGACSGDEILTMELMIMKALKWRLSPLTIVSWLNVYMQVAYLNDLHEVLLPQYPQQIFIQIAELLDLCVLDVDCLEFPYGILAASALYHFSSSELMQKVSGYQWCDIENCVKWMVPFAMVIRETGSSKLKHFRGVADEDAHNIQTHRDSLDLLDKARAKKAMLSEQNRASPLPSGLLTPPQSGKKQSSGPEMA
Chain of CDK3 CCNE1 (human) (Q00526 whole entry, looked up): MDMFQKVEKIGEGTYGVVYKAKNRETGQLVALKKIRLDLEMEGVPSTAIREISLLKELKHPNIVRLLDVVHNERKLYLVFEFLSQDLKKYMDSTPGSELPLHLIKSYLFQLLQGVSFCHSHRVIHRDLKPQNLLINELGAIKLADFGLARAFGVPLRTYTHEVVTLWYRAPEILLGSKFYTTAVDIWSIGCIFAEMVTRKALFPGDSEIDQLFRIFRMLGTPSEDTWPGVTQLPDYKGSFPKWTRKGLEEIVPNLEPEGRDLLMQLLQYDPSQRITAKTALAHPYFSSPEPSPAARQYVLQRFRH
Chain of EPHB1 (human) (P54762 whole entry, looked up): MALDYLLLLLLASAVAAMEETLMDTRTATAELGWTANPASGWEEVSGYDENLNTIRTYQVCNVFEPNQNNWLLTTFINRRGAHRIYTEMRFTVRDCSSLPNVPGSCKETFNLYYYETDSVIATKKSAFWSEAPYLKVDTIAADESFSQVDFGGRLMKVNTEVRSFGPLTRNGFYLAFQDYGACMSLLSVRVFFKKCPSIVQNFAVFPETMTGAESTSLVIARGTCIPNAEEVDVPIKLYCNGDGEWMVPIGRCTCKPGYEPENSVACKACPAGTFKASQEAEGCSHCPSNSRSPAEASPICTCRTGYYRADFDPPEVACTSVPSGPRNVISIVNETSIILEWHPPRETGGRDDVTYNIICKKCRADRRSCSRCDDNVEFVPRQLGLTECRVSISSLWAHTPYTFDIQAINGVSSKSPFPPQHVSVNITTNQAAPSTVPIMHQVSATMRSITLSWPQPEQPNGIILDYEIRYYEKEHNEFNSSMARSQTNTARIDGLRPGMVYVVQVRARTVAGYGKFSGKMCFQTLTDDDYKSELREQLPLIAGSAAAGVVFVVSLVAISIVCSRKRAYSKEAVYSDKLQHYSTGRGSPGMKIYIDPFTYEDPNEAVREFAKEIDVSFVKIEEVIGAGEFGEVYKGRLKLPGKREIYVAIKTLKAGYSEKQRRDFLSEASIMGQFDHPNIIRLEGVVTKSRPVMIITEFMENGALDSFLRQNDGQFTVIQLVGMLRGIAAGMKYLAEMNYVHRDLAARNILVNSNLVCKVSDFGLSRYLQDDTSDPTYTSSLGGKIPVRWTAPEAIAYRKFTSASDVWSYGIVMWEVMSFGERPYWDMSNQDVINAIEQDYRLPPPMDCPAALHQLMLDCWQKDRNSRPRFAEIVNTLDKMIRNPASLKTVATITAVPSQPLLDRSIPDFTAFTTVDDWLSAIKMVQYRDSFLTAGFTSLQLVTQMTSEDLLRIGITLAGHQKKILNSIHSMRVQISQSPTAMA
Chain of CLK3 (human) (P49761 whole entry, looked up): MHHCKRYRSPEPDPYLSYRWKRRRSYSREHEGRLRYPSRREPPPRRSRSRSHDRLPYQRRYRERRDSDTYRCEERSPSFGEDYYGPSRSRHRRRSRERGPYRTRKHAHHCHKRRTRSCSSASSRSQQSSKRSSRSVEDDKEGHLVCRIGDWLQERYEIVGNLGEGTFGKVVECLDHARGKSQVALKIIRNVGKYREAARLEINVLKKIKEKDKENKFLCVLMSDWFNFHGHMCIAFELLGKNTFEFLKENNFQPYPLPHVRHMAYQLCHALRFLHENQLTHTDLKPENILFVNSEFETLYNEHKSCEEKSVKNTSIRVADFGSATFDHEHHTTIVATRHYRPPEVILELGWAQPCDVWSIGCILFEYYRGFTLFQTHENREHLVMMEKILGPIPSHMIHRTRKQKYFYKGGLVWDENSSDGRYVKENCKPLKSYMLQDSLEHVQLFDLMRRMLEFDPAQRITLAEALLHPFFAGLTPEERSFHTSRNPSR

Clc1ccc(Nc2nnc(Cc3ccncc3)c3ccccc23)cc1
residual activity (PAK4 (human)): 95.8% | residual activity (CDK3 CCNE1 (human)): 92.7% | residual activity (CLK3 (human)): 105% | residual activity (IKBKE (human)): 95.7% | residual activity (EPHB1 (human)): 107% | residual activity (IGF1R (human)): 108% | residual activity (MLTK (human)): 90.3% | residual activity (PRKCI (human)): 94.2% | residual activity (MAPKAPK2 (human)): 98.8% | residual activity (PRKG2 (human)): 101% | residual activity (STK17A (human)): 99.4% | residual activity (PRKCB2 (human)): 97.2% | residual activity (RPS6KB1 (human)): 102% | residual activity (EPHA3 (human)): 98.8% | residual activity (DYRK1B (human)): 109% | residual activity (PLK3 (human)): 100% | residual activity (CSNK1E (human)): 99.1% | residual activity (TYRO3 (human)): 98.2% | residual activity (ROCK1 (human)): 110% | residual activity (STK33 (human)): 94.2% | residual activity (ADRBK1 (human)): 102% | residual activity (CSNK2A1 (human)): 114% | residual activity (MAP4K2 (human)): 107% | residual activity (NEK2 (human)): 101% | residual activity (MAP3K11 (human)): 106% | residual activity (MYLK2 (human)): 103% | residual activity (PRKCA (human)): 75.8% | residual activity (EPHA7 (human)): 90.5% | residual activity (JAK3 JH1 JH2 (human)): 92.1% | residual activity (TBK1 (human)): 104% | residual activity (MUSK (human)): 105% | residual activity (MAP3K5 (human)): 101% | residual activity (FYN (human)): 104% | residual activity (CSNK1A1 (human)): 95% | residual activity (ERBB2 (human)): 101% | residual activity (FGR (human)): 96.8% | residual activity (PBK (human)): 108% | residual activity (CAMKK1 (human)): 97.2% | residual activity (IKBKB (human)): 85.6% | residual activity (MST1R (human)): 91.6% | residual activity (PKN2 (human)): 99.9% | residual activity (RIPK2 (human)): 111%

COc1ccc(-c2cnc3c(-c4ccsc4)cnn3c2)cc1
residual activity (PAK4 (human)): 72.5% | residual activity (CDK3 CCNE1 (human)): 84.9% | residual activity (CLK3 (human)): 100% | residual activity (IKBKE (human)): 85.5% | residual activity (EPHB1 (human)): 83.1% | residual activity (IGF1R (human)): 91.3% | residual activity (MLTK (human)): 84.1% | residual activity (PRKCI (human)): 96.2% | residual activity (MAPKAPK2 (human)): 95.8% | residual activity (PRKG2 (human)): 92% | residual activity (STK17A (human)): 91.6% | residual activity (PRKCB2 (human)): 94.3% | residual activity (RPS6KB1 (human)): 92.1% | residual activity (EPHA3 (human)): 93.4% | residual activity (DYRK1B (human)): 78.9% | residual activity (PLK3 (human)): 98% | residual activity (CSNK1E (human)): 86.3% | residual activity (TYRO3 (human)): 91.8% | residual activity (ROCK1 (human)): 95.7% | residual activity (STK33 (human)): 71.6% | residual activity (ADRBK1 (human)): 100% | residual activity (CSNK2A1 (human)): 101% | residual activity (MAP4K2 (human)): 74.8% | residual activity (NEK2 (human)): 90.2% | residual activity (MAP3K11 (human)): 51.9% | residual activity (MYLK2 (human)): 75.6% | residual activity (PRKCA (human)): 101% | residual activity (EPHA7 (human)): 91.1% | residual activity (JAK3 JH1 JH2 (human)): 98.5% | residual activity (TBK1 (human)): 77.7% | residual activity (MUSK (human)): 74.9% | residual activity (MAP3K5 (human)): 105% | residual activity (FYN (human)): 86.3% | residual activity (CSNK1A1 (human)): 101% | residual activity (ERBB2 (human)): 102% | residual activity (FGR (human)): 72.3% | residual activity (PBK (human)): 91.6% | residual activity (CAMKK1 (human)): 79.2% | residual activity (IKBKB (human)): 99.6% | residual activity (MST1R (human)): 91.6% | residual activity (PKN2 (human)): 107% | residual activity (RIPK2 (human)): 56.8%
